Drawing on patent US6653309B1, “Inhibitors of IMPDH enzyme technical field of the invention” (Vertex Pharmaceuticals Incorporated, priority 1999, dated 2003), this text covers Ki for 47 compounds.

SMILES strings stand for the structures.

The target in this assay is IMPDH human type II (Homo sapiens, UniProt P12268). In words: IMPDH Activity Inhibition Assay. The assay is classed as biochemical. As to conditions: spectrophotometric NADH formation at 340 nm, 37° C., tight-binding equation of Henderson. Here is the method:
IMP dehydrogenase activity was assayed following an adaptation of the method first reported by Magasanik. [B. Magasanik et al., J. Biod. Chem., 226, p. 339 (1957), the disclosure of which is herein incorporated by reference]. Enzyme activity was measured spectrophotometrically, by monitoring the increase in absorbance at 340 nm due to the formation of NADH (ε340 is 6220 M^−1 cm^−1). The reaction mixture contained 0.1 M Tris pH 8.0, 0.1 M KCl, 3 mM EDTA, 2 mM DTT, […] and enzyme (IMPDH human type II) at a concentration of 15 to 50 nM. This solution is incubated at 37° C. for 10 minutes. The reaction is started by adding NAD to a final concentration of […] and the initial rate is measured by following the linear increase in absorbance at 340 nm for 10 minutes. For reading in a standard spectrophotometer (path length 1 cm) the final volume in the cuvette is 1.0 ml. The assay has also been adapted to a 96 well microtiter plate format; in this case the concentrations of all the reagents remain the same and the final volume is decreased to 200 μl.
For the analysis of inhibitors, the compound in question is dissolved in DMSO to a final concentration of 20 mM and added to the initial assay mixture for preincubation with the enzyme at a final volume of 2-5% (v/v). The reaction is started by the addition of NAD, and the initial rates measured as above. Ki determinations are made by measuring the initial, velocities in the presence of varying amounts of inhibitor and fitting the data using the tight-binding equation of Henderson (Henderson, P. J. F. (1972) Biochem. J. 127, 321].
For `COc1cccc(NC(=O)c2cc3ccccc3cc2O)c1OC` [Compound 184], the Ki is 10 to 20 µM.

With `O=C(Nc1ccc(Oc2ccccc2)cc1)c1cc2ccccc2cc1O` [Compound 185], the Ki was below 10 µM.

In turn, `COc1ccc(NC(=O)c2cc3ccccc3cc2O)c(OC)c1` [Compound 186] had a Ki of 10 to 20 µM.

`COc1ccc(NC(=O)c2cc3ccccc3cc2O)cc1OC` [Compound 187] had a Ki of 10 to 20 µM.

`COc1cc(NC(=O)c2cc3ccccc3cc2O)cc(OC)c1` [Compound 188] registered a Ki of 10 to 20 µM.

For `O=C(Nc1ccccc1O)c1cc2ccccc2cc1O` [Compound 190], the Ki is above 20 µM.

With `COc1ccc(C)cc1NC(=O)c1ccc2ccccc2c1O` [Compound 191], the Ki is above 20 µM.

In turn, `O=C(Nc1ccccc1O)c1ccc2ccccc2c1O` [Compound 192] came in with an inhibitory constant (Ki) above 20 µM.

In turn, `O=C(Nc1ccccc1Oc1ccccc1)c1ccc2ccccc2c1O` [Compound 193] came in with a Ki of 10 to 20 µM.

With `COc1ccc(C)cc1NC(=O)c1ccccc1OC` [Compound 194], the inhibition constant Ki is above 20 µM.

In turn, `COc1ccccc1C(=O)Nc1ccccc1O` [Compound 195] returned an inhibition constant (Ki) of 10 to 20 µM.

Regarding `COc1ccccc1C(=O)Nc1ccccc1Oc1ccccc1` [Compound 196], the Ki lay within 10 to 20 µM.

For the compound `COc1ccccc1NC(=O)c1ccc(C)cc1O` [Compound 197], the Ki is above 20 µM.

`COc1ccc(C)cc1NC(=O)c1ccc(C)cc1O` [Compound 198] yielded a Ki above 20 µM.

Consider `Cc1ccc(C(=O)Nc2ccccc2O)c(O)c1` [Compound 199], for which the inhibition constant Ki was above 20 µM.

`Cc1ccc(C(=O)Nc2ccccc2Oc2ccccc2)c(O)c1` [Compound 200] gave a Ki of 10 to 20 µM.

The compound `COc1ccccc1NC(=O)c1cc(Br)ccc1O` [Compound 201] yielded a Ki of 10 to 20 µM.

Consider `COc1ccc(C)cc1NC(=O)c1cc(Br)ccc1O` [Compound 202], for which the Ki was above 20 µM.

In turn, `O=C(Nc1ccccc1O)c1cc(Br)ccc1O` [Compound 203] showed a Ki above 20 µM.

`O=C(Nc1ccccc1Oc1ccccc1)c1cc(Br)ccc1O` [Compound 204] showed a Ki above 20 µM.

For `O=[N+]([O-])c1cccc(S(=O)(=O)Nc2ccc(-c3cnco3)cc2)c1` [Compound 300], the Ki fell in the range of 10 to 20 µM.

The compound `O=S(=O)(Nc1ccc(-c2cnco2)cc1)c1ccccc1` [Compound 301] came in with a Ki of 10 to 20 µM.

`COc1ccccc1NS(=O)(=O)c1ccc2ccccc2c1` [Compound 302] yielded a Ki of 10 to 20 µM.

In turn, `O=C(Nc1ccc(F)cc1)Sc1ccccc1O` [Compound 303] displayed a Ki above 20 µM.

`O=C(Nc1cccnc1)c1cc2ccccc2cc1O` [Compound 304]: the Ki was above 20 µM.

In turn, `COc1cc(Cl)ccc1NC(=O)Sc1ccccc1O` [Compound 305] displayed a Ki below 10 µM.

Turning to `COc1ccc(C)cc1NC(=O)Sc1ccccc1O` [Compound 306], the Ki was in the range of 10 to 20 µM.

The compound `COc1ccc(OC)c(S(=O)(=O)Nc2cccc([N+](=O)[O-])c2)c1` [Compound 307] had an inhibition constant Ki of 10 to 20 µM.

Take `COc1ccc(OC)c(S(=O)(=O)Nc2ccc([N+](=O)[O-])cc2)c1` [Compound 308]: the Ki lay in the range of 10 to 20 µM.

Regarding `COc1ccc(OC)c(S(=O)(=O)Nc2cccc(C#N)c2)c1` [Compound 309], the Ki lay within 10 to 20 µM.

For `COc1ccc(OC)c(S(=O)(=O)Nc2ccc(C#N)cc2)c1` [Compound 310], the Ki fell in the range of 10 to 20 µM.

In the case of `COc1cccc(OC)c1S(=O)(=O)Nc1ccc(C(C)(C)C)cc1` [Compound 311], the Ki was 10 to 20 µM.

For the compound `COc1ccc(OC)c(S(=O)(=O)Nc2ccccc2C#N)c1` [Compound 312], the Ki lay in the range of 10 to 20 µM.

Take `COc1ccc(OC)c(S(=O)(=O)Nc2cccc(Br)c2)c1` [Compound 313]: the Ki lay within 10 to 20 µM.

The compound `COc1ccc(OC)c(S(=O)(=O)NCc2c(F)cccc2Cl)c1` [Compound 314] displayed a Ki of 10 to 20 µM.

As to `COc1ccc(OC)c(S(=O)(=O)Nc2ccccc2Cl)c1` [Compound 315], the Ki was in the range of 10 to 20 µM.

`COc1ccc(OC)c(S(=O)(=O)Nc2ccc(-c3ncon3)cc2)c1` [Compound 316] registered a Ki of 10 to 20 µM.

Compound `COc1ccc(OC)c(S(=O)(=O)Nc2ccccc2[N+](=O)[O-])c1` [Compound 317] returned a Ki of 10 to 20 µM.

In the case of `COc1ccc(Br)cc1S(=O)(=O)Oc1cc2ccccc2cc1N` [Compound 318], the Ki fell in the range of 10 to 20 µM.

In the case of `COc1ccc(Br)cc1S(=O)(=O)Nc1cc2ccccc2cc1O` [Compound 319], the Ki was 10 to 20 µM.

As for `COc1ccc(OC)c(S(=O)(=O)Nc2cccc(Cl)c2)c1` [Compound 320], the Ki lay in the range of 10 to 20 µM.

On to `COc1ccccc1NS(=O)(=O)c1cc(Cl)cc(Cl)c1O` [Compound 321], for which the Ki was in the range of 10 to 20 µM.

`COc1ccccc1NS(=O)(=O)c1ccccc1O` [Compound 322]: the Ki fell in the range of 10 to 20 µM.

Turning to `COc1ccc(Br)cc1S(=O)(=O)Nc1ccccc1O` [Compound 323], the Ki was in the range of 10 to 20 µM.

As for `COc1ccccc1S(=O)(=O)Nc1ccccc1O` [Compound 324], the Ki was in the range of 10 to 20 µM.

`COc1cc(NC(=O)Cc2cccc(CNC(=O)O[C@H]3CCOC3)c2)ccc1-c1cnco1` [Compound 325] came in with a Ki below 10 µM.

`COc1cc(NC(=O)Oc2cccc(CNC(=O)O[C@H]3CCOC3)c2)ccc1-c1cnco1` [Compound 326] displayed a Ki below 10 µM.

As a reminder, the Ki is a dissociation constant, usually derived from enzyme kinetics or from competition with a known ligand. A low value points to a stronger hold on the target.
